According to US9597315B2, “1-heteroaryl-3-azabicyclo[3.1.0]hexanes, methods for their preparation and their use as medicaments” (EUTHYMICS BIOSCIENCE, INC., priority 2007, dated 2017):

How the values were obtained:
Type in all cases: cell-based
human DA transporter = target: T1, human DA transporter (Homo sapiens, UniProt Q01959); test: Inhibition of [3H]DA uptake in cells expressing the recombinant human DA transporter; conditions: CHO-K1 cells expressing the DA transporter; for inhibition at 1 µM: 1 μM compound, read-out: Uptake inh. % at 1 μM DA
T1 construct: expressed in transfected cells; host or cells: CHO-K1 cells
Description: (§1) The ability of the 1-heteroaryl-3-azabicyclo[3.1.0.]hexane of the invention for inhibiting transport of norepinephrine (NE) and/or dopamine (DA) and/or serotonin (5-HT) were evaluated using cell lines (such as the HEK 293 cell line) that stably express recombinant human NE, DA, and 5-HT transporters, respectively. The techniques for stably transfecting mammalian cell lines with neurotransmitter transporters and measuring the effects of drugs on amine uptake have been described in the literature (e.g., Gu, H., et al. J. Biol. Chem. 269:7124-7130, 1994; Eshleman A J, J Pharmacol Exp Ther 289:877-885, 1999) and well known to those skilled in the art.
(§2) A basic technique for measuring the ability of a compound to inhibit [^3H]NE, DA, and 5-HT uptake in cell lines recombinantly expressing human transporters has been described (Eshleman, et al., 1999). In brief, cell suspensions (HEK 293 cells expressing the 5-HT transporter; MDCK cells expressing the NE transporter, and CHO-K1 cells expressing the DA transporter, respectively) can be prepared for assay by removing the medium from cells grown on tissue culture dishes, then washing the plates with buffered medium. Cells can then be gently scraped from the plates and cell clusters separated by trituration with a pipette for 5-10 aspiration/ejection cycles. To these cell suspensions were added test drugs (final concentrations generally from 0.01-5 μM) and Tris/Hepes buffer, pH 7.1 (also containing 120 mM NaCl, 1.2 mM CaICl2, 1.2 mM MgSO4, 5 mM D-glucose, and 1 mM ascorbic acid). Following a preincubation of the isolated cells at 25° C., either [^3H]DA, [^3H]5-HT, or [^3H]NE was added and the incubation continued an additional 10 minutes. Radiolabelled neurotransmitter uptake was terminated by vacuum filtration and washing through Whatman glass fiber filters (GF/C), and the radioactivity retained on the filters was measured by liquid scintillation spectrometry. Specific uptake was defined as the difference in uptake observed in the absence and presence of a large molar excess of nomifensine, desipramine, or fluoxetine (for [^3H]DA, [^3H]NE or [^3H]5-HT, respectively].
(§3) The results of these assays are shown in Table 2, below, which indicates, for each of the exemplary compounds, the structure of the substituent, and levels of observed uptake inhibition percentage for each of the indicated neurotransmitters at a fixed concentration of compound, or the IC50 value, defined as that concentration of compound necessary to inhibit uptake by 50%. These are standard terms known to those skilled in the art.

human NE transporter = target: T2, human NE transporter (Homo sapiens, UniProt P23975); test: Inhibition of [3H]NE uptake in cells expressing the recombinant human NE transporter; conditions: MDCK cells expressing the NE transporter; for inhibition at 1 µM: 1 μM compound, read-out: Uptake inh. % at 1 μM NE
T2 construct: expressed in transfected cells; host or cells: MDCK cells
Description: as §1, §2, §3

human 5-HT transporter = target: T3, human 5-HT transporter (Homo sapiens, UniProt P31645); test: Inhibition of [3H]5-HT uptake in cells expressing the recombinant human 5-HT transporter; conditions: HEK 293 cells expressing the 5-HT transporter; for inhibition at 1 µM: HEK293, 1 μM compound, read-out: Uptake inh. % at 1 μM 5-HT
T3 construct: expressed in transfected cells; host or cells: HEK 293 cells
Description: as §1, §2, §3

T1 sequence (Q01959 whole entry): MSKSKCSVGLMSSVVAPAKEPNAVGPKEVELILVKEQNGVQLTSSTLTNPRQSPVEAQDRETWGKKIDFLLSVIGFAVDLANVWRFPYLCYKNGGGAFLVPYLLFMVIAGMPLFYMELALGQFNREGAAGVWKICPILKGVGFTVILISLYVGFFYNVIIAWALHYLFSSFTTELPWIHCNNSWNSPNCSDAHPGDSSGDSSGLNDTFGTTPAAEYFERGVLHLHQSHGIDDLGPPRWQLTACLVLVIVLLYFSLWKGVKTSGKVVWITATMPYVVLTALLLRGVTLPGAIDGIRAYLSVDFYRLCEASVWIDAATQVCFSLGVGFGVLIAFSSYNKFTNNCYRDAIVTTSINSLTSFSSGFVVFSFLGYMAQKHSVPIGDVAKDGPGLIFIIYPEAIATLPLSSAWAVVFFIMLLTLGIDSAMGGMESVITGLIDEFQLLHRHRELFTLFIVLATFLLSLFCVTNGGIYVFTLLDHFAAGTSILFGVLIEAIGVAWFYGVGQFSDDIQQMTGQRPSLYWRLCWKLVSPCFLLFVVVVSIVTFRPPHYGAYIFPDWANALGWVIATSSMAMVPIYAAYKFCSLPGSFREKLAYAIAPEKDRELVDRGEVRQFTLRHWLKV
T3 sequence (P31645 whole entry): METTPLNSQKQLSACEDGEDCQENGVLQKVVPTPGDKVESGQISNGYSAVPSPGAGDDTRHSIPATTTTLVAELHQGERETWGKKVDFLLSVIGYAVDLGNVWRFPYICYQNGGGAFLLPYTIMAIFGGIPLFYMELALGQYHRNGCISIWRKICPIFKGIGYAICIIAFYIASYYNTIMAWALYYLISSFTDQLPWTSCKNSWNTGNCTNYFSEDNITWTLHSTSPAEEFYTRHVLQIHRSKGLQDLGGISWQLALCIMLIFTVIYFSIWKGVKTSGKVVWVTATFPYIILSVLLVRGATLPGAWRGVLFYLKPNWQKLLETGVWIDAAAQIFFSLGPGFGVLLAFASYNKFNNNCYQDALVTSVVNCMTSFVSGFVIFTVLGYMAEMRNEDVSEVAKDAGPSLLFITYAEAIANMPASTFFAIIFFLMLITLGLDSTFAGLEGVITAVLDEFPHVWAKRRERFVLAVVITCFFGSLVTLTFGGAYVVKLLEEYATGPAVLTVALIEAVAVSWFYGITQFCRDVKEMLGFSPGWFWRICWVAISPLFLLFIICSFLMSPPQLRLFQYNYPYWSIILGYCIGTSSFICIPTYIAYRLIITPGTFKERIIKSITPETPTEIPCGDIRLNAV
T2 sequence (P23975 whole entry): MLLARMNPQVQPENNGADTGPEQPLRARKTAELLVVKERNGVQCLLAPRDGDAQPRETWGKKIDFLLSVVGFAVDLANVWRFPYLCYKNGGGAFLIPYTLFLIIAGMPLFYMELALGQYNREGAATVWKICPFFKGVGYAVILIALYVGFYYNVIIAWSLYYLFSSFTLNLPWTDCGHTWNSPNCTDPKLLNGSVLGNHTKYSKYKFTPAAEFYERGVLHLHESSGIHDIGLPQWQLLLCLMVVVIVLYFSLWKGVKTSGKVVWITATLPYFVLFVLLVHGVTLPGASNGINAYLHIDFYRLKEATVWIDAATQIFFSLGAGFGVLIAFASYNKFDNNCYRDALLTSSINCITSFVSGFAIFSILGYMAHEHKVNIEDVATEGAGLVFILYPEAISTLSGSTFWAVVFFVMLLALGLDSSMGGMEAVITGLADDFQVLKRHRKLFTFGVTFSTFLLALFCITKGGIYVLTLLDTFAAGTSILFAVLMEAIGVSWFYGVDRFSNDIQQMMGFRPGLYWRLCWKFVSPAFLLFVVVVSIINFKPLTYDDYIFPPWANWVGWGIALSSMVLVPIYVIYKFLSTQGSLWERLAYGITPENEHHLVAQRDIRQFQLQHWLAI

| SMILES | inhibition at 1 µM (human DA transporter) [%] | inhibition at 1 µM (human NE transporter) [%] | inhibition at 1 µM (human 5-HT transporter) [%] | IC50 (human DA transporter) [nM] | IC50 (human NE transporter) [nM] | IC50 (human 5-HT transporter) [nM] |
| --- | --- | --- | --- | --- | --- | --- |
| Cc1ccc(C23CNCC2C3)s1 (stereo not drawn) | 20 | 59 | 35 |  |  |  |
| CN1CC2CC2(c2cc3ccccc3s2)C1 (stereo not drawn) | 88 | 71 | 92 | 98 | 60 | 34 |
| CCN1CC2CC2(c2cc3ccccc3n2C)C1 (stereo not drawn) | 32 | 29 | 65 |  |  |  |
| CN1C[C@H]2C[C@]2(c2cc3ccccc3s2)C1 | 83 | 75 | 89 | 195 | 107 | 263 |
| c1ccc2sc([C@]34CNC[C@H]3C4)cc2c1 | 90 | 97 | 96 | 52 | 14 | 193 |
| c1ccc2c(C34CNCC3C4)coc2c1 (stereo not drawn) | 63 | 77 | 57 | 770 | 82 | 188 |
| CN1CC2CC2(c2ccc3ncccc3c2)C1 (stereo not drawn) | 12 | 13 | 93 |  |  |  |
| CN1CC2CC2(c2cc3ccccc3o2)C1 (stereo not drawn) |  |  |  | 630 | 400 | 340 |
| c1ccc2sc(C34CNCC3C4)cc2c1 (stereo not drawn) | 91 | 90 | 66 | 82 | 20 | 88 |
| c1cnc2ccc(C34CNCC3C4)cc2c1 (stereo not drawn) | 17 | 68 | 63 |  |  |  |
| Clc1ccc2scc(C34CNCC3C4)c2c1 (stereo not drawn) | 13 | 50 | 18 |  |  |  |
| CN1CC2CC2(c2cc3ccccc3n2C)C1 (stereo not drawn) | 19 | 35 | 64 |  |  |  |
| Fc1ccc2cc(C34CNCC3C4)sc2c1 (stereo not drawn) | 99 | 98 | 100 |  |  |  |
| CN1CC2CC2(c2csc3ccc(Cl)cc23)C1 (stereo not drawn) | 1 | 39 | 50 |  |  |  |
| CN1C[C@H]2C[C@@]2(c2cc3ccccc3s2)C1 | 82 | 89 | 99 | 224 | 71 | 54 |
| c1ccc2sc(C34CNCC3C4)nc2c1 (stereo not drawn) | 5 | 72 | 7 |  |  |  |
| CCN1CC2CC2(c2ccc3c(ccn3C)c2)C1 (stereo not drawn) | 65 | 39 | 59 | 215 | 138 | 308 |
| CC(C)N1CC2CC2(c2cc3ccccc3n2C)C1 (stereo not drawn) | 7 | 13 | 83 |  |  |  |
| CN1CC2CC2(c2cc3cc(F)ccc3s2)C1 (stereo not drawn) | 63 | 70 | 94 |  |  |  |
| Fc1ccc2sc(C34CNCC3C4)cc2c1 (stereo not drawn) | 78 | 91 | 98 |  |  |  |
| CN1CC2CC2(c2ccc3c(ccn3C)c2)C1 (stereo not drawn) | 45 | 53 | 71 | 811 | 186 | 154 |
| c1ccc2sc([C@@]34CNC[C@H]3C4)cc2c1 | 90 | 84 | 76 | 149 | 99 | 481 |
| c1ccc2ncc(C34CNCC3C4)cc2c1 (stereo not drawn) | 10 | 64 | 14 |  |  |  |
| CN1CC2CC2(c2cc3ccc(F)cc3s2)C1 (stereo not drawn) | 94 | 88 | 99 |  |  |  |
| CN1CC2CC2(c2coc3ccccc23)C1 (stereo not drawn) | 67 | 82 | 45 | 475 | 138 | 1450 |
